Assay results: patent US9145374B2, “Shikimate pathway inhibitors and the use thereof” (National Tsing Hua University, priority 2013, dated 2015)
In brackets after ≈: the same amount, converted by molar mass. Several values for one entry are separate records, joined by “and”; a condition that tells them apart may be missing. Equal values may be shown once.

What was measured:
H. pylori [1] = experiment: Synergistic effect of compound 25a in MBC test against H. pylori; assay type: cell-based, Helicobacter pylori; conditions: for MBC: Helicobacter pylori, 24 h, read-out: MBC, single treatment
[2] = target: T1, H. pylori Shikimate Dehydrogenase (HpSDH) (Helicobacter pylori, UniProt P56119); experiment: Inhibition activity assay toward HpSDH; assay type: biochemical; conditions: for IC50: IC50 toward HpSDH, wild type (26695) HpSDH recombinant protein; for inhibition activity toward HpSDH (in words): preliminary screening concentration 100 μM
T1 construct: made in house; host or cells: E. coli BL21
T1 sequence (P56119 whole entry): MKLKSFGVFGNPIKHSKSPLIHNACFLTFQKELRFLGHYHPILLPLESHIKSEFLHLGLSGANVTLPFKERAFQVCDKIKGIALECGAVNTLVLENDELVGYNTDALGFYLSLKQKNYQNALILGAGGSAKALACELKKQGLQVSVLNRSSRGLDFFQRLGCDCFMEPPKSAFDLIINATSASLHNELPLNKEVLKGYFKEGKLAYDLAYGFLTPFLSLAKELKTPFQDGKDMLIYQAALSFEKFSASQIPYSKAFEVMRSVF
Text: The recombinant HpSDH (aroE) was cloned in pET-28a plasmid and transformed into E. coli strain BL21 as expression host.
Relative HpSDH activity calculations were based on the initial velocity that absorbance at the 5 to 10% of the time when reaction absorbance reached the maximum level. The variable slope of this time interval represented the reaction rate of HpSDH at various concentration of compound and normalized with the negative control HpSDH (without inhibitor) which represented 100% activity.
To evaluate structure activity relationship (SAR), all the synthesized compounds in SDH inhibition activity on wild type HpSDH recombinant protein was evaluated. All the datas of effective compounds were expressed as IC50 value after treated with different compounds. In priminary screening, using 100 μM as priminary screening concentration to evaluate all synthesized compounds.
(§1) The enzymatic activity of HpSDH was measured in the direction of reduction of NADP^+ to NADPH in the present of shikimic acid at 340 nm absorbance and conducted in 96-well plate ELISA reader. The final concentration of shikimic acid and NADP^+ were 2 mM, and the final protein concentration was 100 nM. Shikimic acid was added by injector needle equipped in ELISA reader to ensure the measurements were made at the same time spacing. NADPH would accumulate along with reaction, and the absorbance at 340 nm would be measured in every cycle of HpSDH reaction.

[3] = target: T1, H. pylori Shikimate Dehydrogenase (HpSDH); experiment: Enzymatic kinetics of effective compounds toward HpSDH; assay type: biochemical; conditions: for inhibition type toward NADP+ / inhibition type toward shikimic acid: HpSDH
Procedure: as §1
To study the inhibition mode of these compounds and inhibition type to shikimic acid and NADP^+, different concentrations of inhibitors and graded concentrations of substrates by activity assay was examined.

H. pylori [4] = experiment: Minimum bactericidal concentration assay (MBC assay) against H. pylori; assay type: cell-based, Helicobacter pylori; conditions: for MBC: Helicobacter pylori; for anti-bacterial activity toward H. pylori (in words): wild type (26695) and clinical isolated strains
Procedure: To evaluate the anti-H. pylori activity, the minimum bactericidal concentration (MBC) value of compounds was determined. The MBC value of standard antibiotics, clarithromycine (CLR) and metronidazole (MTZ) were served as the positive control.
Wild type (26695, as reference strain) was cultured on brucella broth agar plate containing 1% IsovialeX (Becton, Dickinson and Company, USA) and 10% sheep blood in microaerophilic environment (5% O2, 10% CO2, and 85% N2), 37° C. Clinical strains (v574, v633, v1086, v1254, v1267, v1354 and v2311) were cultured on brucella broth agar plate containing 1% IsovialeX and 20%-30% sheep blood in microaerophilic environment (5% O2, 10% CO2, and 85% N2), 37° C.
Wild type and selected clinical H. pylori strains was cultured for 24 to 36 hours and measured by Cell density meter, O.D. 680 at 0.87-0.9. H. pylori and selected compounds with serial concentration were mixed in Brucella-broth (BD) with 10% of FBS in 24-well plate, and total volume of each well was 300 μl, cultured under 37° C. with 180 rpm shaking. After incubated for 24 hours, 3 μl of each well was seeding on blood agar plate for another 48 hours culture. […] The final concentration of DMSO in the assay was less than 5% to avoid any effect in the growth of H. pylori at this experiment.

| Compound | IC50 [2] | inhibition activity toward HpSDH (in words) [2] | Ki [3] | inhibition type toward NADP+ [3] | inhibition type toward shikimic acid [3] | MBC (H. pylori [4]; W.T 26695) | MBC (H. pylori [4]; clinical isolated strain v574) | MBC (H. pylori [4]; clinical isolated strain v633) | MBC (H. pylori [4]; clinical isolated strain v1086) | MBC (H. pylori [4]; clinical isolated strain v1254) | MBC (H. pylori [4]; clinical isolated strain v1267) | MBC (H. pylori [4]; clinical isolated strain v1354) | MBC (H. pylori [4]; clinical isolated strain v2311) | MBC value against H. pylori (H. pylori [4]; W.T 26695) | anti-bacterial activity toward H. pylori (in words) (H. pylori [4]) | MBC value against H. pylori (H. pylori [4]; clinical isolated strain v633) | other results |
| --- | --- | --- | --- | --- | --- | --- | --- | --- | --- | --- | --- | --- | --- | --- | --- | --- | --- |
| CC[C@H]1OC(=O)[C@H](C)[C@@H](O[C@H]2C[C@@](C)(OC)[C@@H](O)[C@H](C)O2)[C@H](C)[C@@H](O[C@@H]2O[C@H](C)C[C@H](N(C)C)[C@H]2O)[C@](C)(OC)C[C@@H](C)C(=O)[C@H](C)[C@@H](O)[C@]1(C)O [CLR, clarithromycin] | – | – | – | – | – | – | – | – | – | – | – | – | – | – | – | – | growth of resistant strain v1086 (in words) (H. pylori [1]; CLR 4 mg/L alone or with compound 25a 2 mg/L): cannot completely inhibit the growth; MBC (H. pylori [1]; 26695 wild type): < 1 µg/mL; MBC (H. pylori [1]; v574 MTR-resistant strain): < 1 µg/mL; MBC (H. pylori [1]; v1086 CLR-resistant strain): 8 µg/mL |
| CSc1ccc(/C=C/C=C2C(=O)NC(=O)NC2=O)cc1 [7e] | 22 µM and 11 to 22 µM | more effective inhibitors | 2.67 µM | competitive inhibition | non-competitive or uncompetitive | 8 µg/mL (≈ 27.7 µM) | 8 µg/mL (≈ 27.7 µM) | 8 µg/mL (≈ 27.7 µM) | 8 µg/mL (≈ 27.7 µM) | 8 µg/mL (≈ 27.7 µM) | 8 µg/mL (≈ 27.7 µM) | 8 µg/mL (≈ 27.7 µM) | 8 µg/mL (≈ 27.7 µM) | 8.0 µg/mL (≈ 27.7 µM) | three most potent inhibitors | – | – |
| COc1ccc(/C=C/C=C2C(=O)NC(=O)NC2=O)cc1 [7d] | 35.1 µM | more effective inhibitors | – | – | – | 8 µg/mL (≈ 29.4 µM) | 8 µg/mL (≈ 29.4 µM) | 4 µg/mL (≈ 14.7 µM) | 8 µg/mL (≈ 29.4 µM) | 8 µg/mL (≈ 29.4 µM) | 8 µg/mL (≈ 29.4 µM) | 8 µg/mL (≈ 29.4 µM) | 16 µg/mL (≈ 58.8 µM) | 8.0 µg/mL (≈ 29.4 µM) | three most potent inhibitors | 4.0 µg/mL (≈ 14.7 µM) | – |
| Cc1cc(C)cc(N2C(=O)NC(=O)/C(=C\C=C\c3ccccc3)C2=O)c1 [CB6010554] | – | – | – | – | – | 10 µg/mL (≈ 28.9 µM) | – | – | – | – | – | – | – | 10.0 µg/mL (≈ 28.9 µM) | – | – | – |
| C=CCN1C(=O)C(=C/C=C/c2ccccc2)C(=O)N(CC=C)C1=O [25a, (E)-1,3-diallyl-5-(3-phenylallylidene)pyrimidine-2,4,6(1H,3H,5H)-trione] | 11.4 µM and 11 to 22 µM | more effective inhibitors | 2.01 µM | competitive inhibition | non-competitive or uncompetitive | 8 µg/mL (≈ 24.8 µM) | 8 µg/mL (≈ 24.8 µM) | 16 µg/mL (≈ 49.6 µM) | 8 µg/mL (≈ 24.8 µM) | 8 µg/mL (≈ 24.8 µM) | 8 µg/mL (≈ 24.8 µM) | 8 µg/mL (≈ 24.8 µM) | 8 µg/mL (≈ 24.8 µM) | 8.0 µg/mL (≈ 24.8 µM) | three most potent inhibitors | – | MBC (H. pylori [1]): 6 µg/mL; MBC, single treatment (H. pylori [1]; v574 MTR-resistant strain): 6.0 µg/mL; MBC, single treatment (H. pylori [1]; v1086 CLR-resistant strain): 6.0 µg/mL |
| COc1cc(/C=C/C=C2C(=O)NC(=O)NC2=O)cc(OC)c1 [7i] | 20.3 µM and 11 to 22 µM | more effective inhibitors | 3.81 µM | competitive inhibition | non-competitive or uncompetitive | 8 µg/mL (≈ 26.5 µM) | 8 µg/mL (≈ 26.5 µM) | 4 µg/mL (≈ 13.2 µM) | 8 µg/mL (≈ 26.5 µM) | 32 µg/mL (≈ 106 µM) | 8 µg/mL (≈ 26.5 µM) | 4 µg/mL (≈ 13.2 µM) | 16 µg/mL (≈ 52.9 µM) | 8.0 µg/mL (≈ 26.5 µM) | – | 4.0 µg/mL (≈ 13.2 µM) | MBC value against H. pylori (H. pylori [4]; clinical isolated strain v1354): 4.0 µg/mL (≈ 13.2 µM) |
